The text below walks through data of US20020128256A1, “Methods for the treatment or prevention of inflammatory diseases characterized by abnormal cell proliferation” (priority 1997, published 2002).

pIC50: −log10 of the molar value. Where two headings read alike, the source gives them in different places.

One may read the inhibition as the percentage by which the read-out fell short of the control. What is called pIC50 is the IC50 on a negative log10 scale, so that one unit is a factor of ten. What is called melting point is the temperature, or range, at which the solid turns liquid.

Data set [1] deals with NIH 3T3 mouse fibroblast cells. The data set is described as follows: Mitogenic Assay (mitogen-induced cell proliferation). Conditions: for Mitogenic Assay Inhibition (%) / inhibition at 10 µM: measured at 10 μM compound, NIH 3T3 cells; for inhibition at 10 µM: Mus musculus, read-out: Mitogenic Assay Inhibition (%); for pIC50: NIH 3T3 mouse fibroblast cells, mitogen-induced proliferation, read-out: Mitogenic Assay IC50. The format is cell-based.

Data set [2] addresses T1, Gardos channel of erythrocytes (Homo sapiens, UniProt O15554).
T1 construct: endogenous in cells; host or cells: erythrocytes
The data set is described as follows: Gardos Channel Assay. The format is cell-based. The settings on record: for inhibition at 10 µM: read-out: Gardos Channel Assay Inhibition (%).

The target in data set [3] is Gardos channel (Homo sapiens, UniProt O15554). Also on record: host or cells: sickle erythrocytes (printed for Clotrimazole only). Conditions: cited from earlier work.
Chain of Gardos channel (O15554 whole entry): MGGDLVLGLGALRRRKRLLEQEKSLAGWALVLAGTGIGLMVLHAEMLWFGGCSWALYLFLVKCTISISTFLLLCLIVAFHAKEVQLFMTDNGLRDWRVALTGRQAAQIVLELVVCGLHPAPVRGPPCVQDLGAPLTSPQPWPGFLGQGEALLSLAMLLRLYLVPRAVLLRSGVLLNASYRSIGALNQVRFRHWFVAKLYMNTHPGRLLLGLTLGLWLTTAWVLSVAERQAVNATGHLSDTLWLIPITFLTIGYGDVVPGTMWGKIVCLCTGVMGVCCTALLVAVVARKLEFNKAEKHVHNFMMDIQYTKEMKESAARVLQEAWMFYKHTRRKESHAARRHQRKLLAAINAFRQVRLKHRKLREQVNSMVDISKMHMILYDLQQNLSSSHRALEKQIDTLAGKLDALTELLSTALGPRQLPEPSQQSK
Setting [4] is: erythrocytes, read-out: Gardos Channel Assay IC50.

T1 sequence (O15554 whole entry): as above

As to “2-(Ethyl-2′-(1,3-dioxolane))-1-hydroxy-3,3-diphenylindene [Compound 20]”, the “Mitogenic Assay Inhibition (%)” value in data set [1] is on record as 81.0%. For the same compound, the “Gardos Channel Assay Inhibition (%)” value in data set [2] (measured at 10 μM compound) stood at 0%.
Turning to “3,3-Diphenyl-1-indanyl α-(4-methyltoluate) ether [Compound 17]”, the “Mitogenic Assay Inhibition (%)” value in data set [1] came out at 76.0%. In addition, the “Gardos Channel Assay Inhibition (%)” value in data set [2] (measured at 10 μM compound) is 0%.
Take `NC1=Nc2ccccc2C1(c1ccccc1)c1ccccc1` [Compound 1]: the values for the inhibition at 10 µM in data set [1] (NIH3T3) and in data set [2] (measured at 10 μM compound) were 97% and 98%, respectively. The pIC50 is 6.15 in data set [1] (NIH3T3) and 6.38 in data set [2] (setting [4]).
Regarding `O=C1CC(c2ccccc2)(c2ccccc2)c2ccccc21` [Compound 2, 3,3-Diphenylindanone], the pIC50 in data set [2] (setting [4]) was 6.00. The inhibition at 10 µM in data set [2] (measured at 10 μM compound) came to 100%.
Take `OC1CC(c2ccccc2)(c2ccccc2)c2ccccc21` (stereo not drawn) [Compound 3, 1-Hydroxy-3,3-Diphenylindane]: the melting point lay within 133 to 135 °C. The pIC50 in data set [2] (setting [4]) is 6.09. Moreover, in data set [2], the inhibition at 10 µM was determined as 100%.
In turn, `O/N=C1\CC(c2ccccc2)(c2ccccc2)c2ccccc21` [Compound 4, 1-N-Oxime-3,3-Diphenylindane] gave a melting point of 138 to 141 °C. Besides, the pIC50 in data set [2] (setting [4]) is 5.87. For the same compound, the inhibition at 10 µM in data set [2] (measured at 10 μM compound) was found to be 100%.
In the case of `N#CC1OC12CC(c1ccccc1)(c1ccccc1)c1ccccc12` (stereo not drawn) [Compound 5, Spiro[3,3-diphenyl-2,3-dihydro(1H)indene-1,3′-2′-cyanooxirane]], the “Mitogenic Assay Inhibition (%)” value in data set [1] stood at 29.0%. In addition, the “Gardos Channel Assay Inhibition (%)” value in data set [2] (measured at 10 μM compound) turned out to be 67.3%.
Consider `C=CCOC1c2ccccc2C(c2ccccc2)(c2ccccc2)C1CC=C` (stereo not drawn) [Compound 6, 2-(2′-Propenyl)-1-(2′-propenoxy)-3,3-diphenylindane], for which, in data set [1], the pIC50 was 5.47 and the “Mitogenic Assay Inhibition (%)” value is recorded as 90.0%. For the same compound, the “Gardos Channel Assay Inhibition (%)” value in data set [2] (measured at 10 μM compound) was 35.0%.
In turn, `CC(=O)OC1CC(c2ccccc2)(c2ccccc2)c2ccccc21` (stereo not drawn) [Compound 7, 1-Acetoxy-3,3-diphenylindane] registered a melting point of 90 °C. Besides, the negative-log IC50 (pIC50) in data set [2] is 5.94. Further, in data set [2] (measured at 10 μM compound), the inhibition at 10 µM came out at 88%.
On to `N#CCC1C(=O)c2ccccc2C1(c1ccccc1)c1ccccc1` (stereo not drawn) [Compound 9, 2-cyanomethyl-3,3-diphenylindanone], for which the pIC50 in data set [2] (setting [4]) was 6.30. In data set [2], the inhibition at 10 µM turned out to be 100%.
In the case of `N#CCC1C(=O)c2cc(Cl)ccc2C1(c1ccc(Cl)cc1)c1ccc(Cl)cc1` (stereo not drawn) [Compound 10, 6-Chloro-2-cyanomethyl-3,3-di(4′-chlorophenyl)indanone], in data set [1] (NIH3T3), the inhibition at 10 µM was 98% and the pIC50 was 5.48. For the same compound, in data set [2] (measured at 10 μM compound), the inhibition at 10 µM worked out at 49.5%.
For the compound `NC(=O)CC1C(=O)c2ccccc2C1(c1ccccc1)c1ccccc1` (stereo not drawn) [Compound 12, 2-Acetamide-3,3-diphenylindanone], the melting point was 169 to 171 °C. Also, the pIC50 in data set [2] (setting [4]) was 6.72. For the same compound, the inhibition at 10 µM in data set [2] (measured at 10 μM compound) was determined as 99.5%.
With `N#CCC1C(O)c2ccccc2C1(c1ccccc1)c1ccccc1` (stereo not drawn) [Compound 13, 2-Cyanomethyl-3,3-diphenylindanol], the melting point fell in the range of 79 to 85 °C. Besides, the inhibition at 10 µM in data set [1] (NIH3T3) turned out to be 12%. Also, the pIC50 in data set [2] (setting [4]) was 5.80. Also, the inhibition at 10 µM in data set [2] (measured at 10 μM compound) was 99.5%.
Consider `NC(=O)CC1C(O)c2ccccc2C1(c1ccccc1)c1ccccc1` (stereo not drawn) [Compound 14, 2-Acetamide-3,3-diphenylindanol], for which the melting point was 218 to 220 °C. The inhibition at 10 µM in data set [1] (NIH3T3) came out at 3%. Further, in data set [2] (setting [4]), the pIC50 is 5.53. Moreover, the inhibition at 10 µM in data set [2] (measured at 10 μM compound) was found to be 90.5%.
Regarding `COC(=O)CC1C(=O)c2ccccc2C1(c1ccccc1)c1ccccc1` (stereo not drawn) [Compound 15, 3,3-Diphenylindanone-2-methyl acetate], in data set [1], the pIC50 was 5.12 and the “Mitogenic Assay Inhibition (%)” value was found to be 80.0%. The pIC50 in data set [2] (setting [4]) was 5.54. The “Gardos Channel Assay Inhibition (%)” value in data set [2] (measured at 10 μM compound) came to 54.8%.
Take `c1ccc(C2(c3ccccc3)CC(OCc3ccc4ccccc4c3)c3ccccc32)cc1` (stereo not drawn) [Compound 16, 3,3-Diphenyl-1-indanyl 2-naphthylmethyl ether]: the inhibition at 10 µM came out at 75% in data set [1] (NIH3T3) and 0% in data set [2] (measured at 10 μM compound).
Turning to `Clc1ccccc1COC1CC(c2ccccc2)(c2ccccc2)c2ccccc21` (stereo not drawn) [Compound 18, 3,3-Diphenyl-1-indanyl α-(2-chlorotoluyl) ether], the “Mitogenic Assay Inhibition (%)” value in data set [1] is listed as 73.0%. In addition, in data set [2] (measured at 10 μM compound), the “Gardos Channel Assay Inhibition (%)” value worked out at 0%.
For `O=C1c2ccccc2C(c2ccccc2)(c2ccccc2)C1CCCO` (stereo not drawn) [Compound 19, 3-(3′,3′-diphenyl-2′-indanyl-1′-one)propanol], the melting point came to 98 °C. Besides, in data set [2], the pIC50 was 5.23 and the inhibition at 10 µM was 43.7%.
`Clc1ccc(CCC(Cn2ccnc2)Sc2c(Cl)cccc2Cl)cc1` (stereo not drawn) [butoconazole]: the “Gardos channel inhibition in vitro” value in data set [3] is on record as “inhibit the Gardos channel in vitro”.
For the compound `Clc1ccc(COC(Cn2ccnc2)c2ccc(Cl)cc2Cl)cc1` (stereo not drawn) [econazole], the “Gardos channel inhibition in vitro” value in data set [3] was “inhibit the Gardos channel in vitro”.
With `Clc1ccc(COC(Cn2ccnc2)c2ccc(Cl)cc2Cl)c(Cl)c1` (stereo not drawn) [miconazole], the “Gardos channel inhibition in vitro” value in data set [3] is recorded as “inhibit the Gardos channel in vitro”.
